Test results: ChEMBL document CHEMBL1201862, “PubChem BioAssay data set” (2004)
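Briefly, cells in 96-well plates were exposed to five compound concentrations for 48 h, and endpoints were estimated by linear interpolation. Abbreviation: GI50, concentration required for 50% inhibition of growth.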 Activity calls are given as the source filed them. Rule as the data show it: active = GI50 up to about 1.1 µM and inactive = higher.

Experiments:
Assay in all cases: NCI anticancer screen, dose series, 48 h
[1] = system: 786-0
[2] = system: A549
[3] = system: ACHN
[4] = system: CAKI-1
[5] = system: COLO 205
[6] = system: HCC 2998
[7] = system: HL-60
[8] = system: HT-29
[9] = system: M14
[10] = system: MDA-MB-435
[11] = system: MDA-N
[12] = system: MOLT-4
[13] = system: NCI-H460
[14] = system: RPMI-8226
[15] = system: SF-268
[16] = system: SF-295
[17] = system: SN12C
[18] = system: U-251
[19] = system: UACC-257

SMILES | GI50 [1] | GI50 [2] | GI50 [3] | GI50 [4] | GI50 [5] | GI50 [6] | GI50 [7] | GI50 [8] | GI50 [9] | GI50 [10] | GI50 [11] | GI50 [12] | GI50 [13] | GI50 [14] | GI50 [15] | GI50 [16] | GI50 [17] | GI50 [18] | GI50 [19]
COc1ccc(-c2c(C#N)c(=O)nc(SC)n2C2OCC(OC(C)=O)C(OC(C)=O)C2OC(C)=O)cc1 (centres undefined) | > 100 µM (inactive) | 82.4 µM (inactive) | 75 µM (inactive) | > 100 µM (inactive) | > 100 µM (inactive) | > 100 µM (inactive) | 22.2 µM (inactive) | 56 µM (inactive) | > 100 µM (inactive) | > 100 µM (inactive) | 83.4 µM (inactive) | 21.3 µM (inactive) | 27.2 µM (inactive) | 37.7 µM (inactive) | 55 µM (inactive) | > 100 µM (inactive) | > 100 µM (inactive) | 57.8 µM (inactive) | > 100 µM (inactive)
COCCOC1=C(Cl)C(=O)c2c(O)ccc(O)c2C1=O | 1.62 µM (inactive) | 8.34 µM (inactive) | 1.11 µM (active) | 0.438 µM (active) | 0.838 µM (active) | 8.2 µM (inactive) | 0.111 µM (active) | 2.37 µM (inactive) | 1.71 µM (inactive) | 1.02 µM (active) | 1.34 µM (inactive) | 0.105 µM (active) | 5.52 µM (inactive) | 0.741 µM (active) | 4.71 µM (inactive) | 14.8 µM (inactive) | 1.92 µM (inactive) | 4.75 µM (inactive) | 1.96 µM (inactive)
O=C1/C(=C/c2ccc(O)c(O)c2)CCC/C1=C\c1ccc(O)c(O)c1 | 3.31 µM (inactive) | 7.41 µM (inactive) | 2.69 µM (inactive) | 3.68 µM (inactive) | 7.03 µM (inactive) | 4.12 µM (inactive) | 3.24 µM (inactive) | 8.09 µM (inactive) | 4.8 µM (inactive) | 2.91 µM (inactive) | 3.13 µM (inactive) | 2.42 µM (inactive) | 3.45 µM (inactive) | 2.48 µM (inactive) | 3.02 µM (inactive) | 8.07 µM (inactive) | 4.41 µM (inactive) | 2.92 µM (inactive) | 4.51 µM (inactive)
CN(C)CCNC(=O)c1c(O)ccc2c1c1c(n2CCc2ccccc2)C(=O)c2ccccc2C1=O | 4.36 µM (inactive) | 8.53 µM (inactive) | 9.18 µM (inactive) | 7.08 µM (inactive) | 15.8 µM (inactive) | 1.22 µM (inactive) | 9.18 µM (inactive) | 6.82 µM (inactive) | 1.93 µM (inactive) | 2.17 µM (inactive) | 2.25 µM (inactive) | 4.42 µM (inactive) | 3.58 µM (inactive) | 2.75 µM (inactive) | 4.15 µM (inactive) | 4.06 µM (inactive) | 6.56 µM (inactive) | 4.4 µM (inactive) | 5.37 µM (inactive)
NC(=S)N1N=C(c2ccc3c(c2)CCC3)CC1c1ccccc1 (centres undefined) | 22.6 µM (inactive) | 23.4 µM (inactive) | 27.9 µM (inactive) | 21.3 µM (inactive) | 18.3 µM (inactive) | 16.1 µM (inactive) | 7.93 µM (inactive) | 16.4 µM (inactive) | 26.7 µM (inactive) | 20.2 µM (inactive) | 22.9 µM (inactive) | 8.15 µM (inactive) | 22.2 µM (inactive) | 13.6 µM (inactive) | 30.8 µM (inactive) | 15.7 µM (inactive) | 24.7 µM (inactive) | 20.4 µM (inactive) | 21.4 µM (inactive)
CCOC(=O)C1=C(Cl)c2cccnc2C1=O | 44 µM (inactive) | 55.7 µM (inactive) | 35.4 µM (inactive) | 54.6 µM (inactive) | 43.4 µM (inactive) | 61.7 µM (inactive) | > 100 µM (inactive) | 81.7 µM (inactive) | 54.2 µM (inactive) | 28 µM (inactive) | 34.9 µM (inactive) | 34 µM (inactive) | > 100 µM (inactive) | 87.3 µM (inactive) | 55.2 µM (inactive) | 39.4 µM (inactive) | 52.4 µM (inactive) | 35.6 µM (inactive) | 39.7 µM (inactive)
CCC(=O)Nc1ccc(N2C(=O)/C(=C/c3ccc(O)c(OC)c3)N=C2c2ccccc2)cc1 | 24 µM (inactive) | 21.3 µM (inactive) | 23.3 µM (inactive) | 17.3 µM (inactive) |  | 21 µM (inactive) | 24 µM (inactive) | 33.7 µM (inactive) | 19.7 µM (inactive) | 29.5 µM (inactive) | 31.3 µM (inactive) | 11.3 µM (inactive) | 23.9 µM (inactive) | 6.82 µM (inactive) | 27 µM (inactive) | 19.9 µM (inactive) | 54.5 µM (inactive) |  | 26.7 µM (inactive)
C=CCn1c(N)c(C#N)c(C#N)c1CCC | > 100 µM (inactive) | > 100 µM (inactive) | > 100 µM (inactive) | > 100 µM (inactive) | > 100 µM (inactive) | > 100 µM (inactive) | > 100 µM (inactive) | > 100 µM (inactive) | > 100 µM (inactive) | > 100 µM (inactive) | > 100 µM (inactive) | 43.2 µM (inactive) |  | > 100 µM (inactive) | > 100 µM (inactive) | > 100 µM (inactive) | > 100 µM (inactive) | > 100 µM (inactive) | > 100 µM (inactive)
C=C=C(C)C(=O)N(C(C)C)C(C)C | > 100 µM (inactive) | > 100 µM (inactive) | > 100 µM (inactive) |  | > 100 µM (inactive) | > 100 µM (inactive) | > 100 µM (inactive) | > 100 µM (inactive) | > 100 µM (inactive) | > 100 µM (inactive) | > 100 µM (inactive) | > 100 µM (inactive) | > 100 µM (inactive) | > 100 µM (inactive) | > 100 µM (inactive) | > 100 µM (inactive) | > 100 µM (inactive) | > 100 µM (inactive) | > 100 µM (inactive)
O=C(O)C1(CC(CCCN2CCCCC2)c2ccccc2)CCCC1 (centres undefined) | > 100 µM (inactive) | > 100 µM (inactive) | > 100 µM (inactive) | > 100 µM (inactive) | > 100 µM (inactive) | > 100 µM (inactive) | > 100 µM (inactive) | > 100 µM (inactive) | > 100 µM (inactive) | > 100 µM (inactive) | > 100 µM (inactive) | > 100 µM (inactive) | > 100 µM (inactive) | > 100 µM (inactive) | > 100 µM (inactive) | > 100 µM (inactive) | > 100 µM (inactive) | > 100 µM (inactive) | 
CCCC(=O)NC(NC1CCCCC1)(C(=O)OCC)C(F)(F)F (centres undefined) | > 100 µM (inactive) | > 100 µM (inactive) | > 100 µM (inactive) |  |  | > 100 µM (inactive) | > 100 µM (inactive) | > 100 µM (inactive) | > 100 µM (inactive) | > 100 µM (inactive) | > 100 µM (inactive) | > 100 µM (inactive) | > 100 µM (inactive) | > 100 µM (inactive) | > 100 µM (inactive) | > 100 µM (inactive) | > 100 µM (inactive) | > 100 µM (inactive) | > 100 µM (inactive)
Cc1c(C)c2c(c(N)c1C#N)C(=O)N(OS(=O)(=O)c1ccccc1)C2=O | 16.4 µM (inactive) | 15.6 µM (inactive) | 18.5 µM (inactive) | 20.8 µM (inactive) | 21.8 µM (inactive) | 38.7 µM (inactive) | 30.1 µM (inactive) |  | 19.5 µM (inactive) | 19 µM (inactive) | 29.8 µM (inactive) | 21.4 µM (inactive) | 37.5 µM (inactive) | 15.1 µM (inactive) | 95.1 µM (inactive) | > 100 µM (inactive) | 23.7 µM (inactive) | 20.5 µM (inactive) | 24.4 µM (inactive)
COc1ccc2cc(C(C)C(O)c3cc(F)c(F)c(F)c3F)ccc2c1 (centres undefined) | > 100 µM (inactive) | > 100 µM (inactive) | 42.9 µM (inactive) |  | > 100 µM (inactive) | > 100 µM (inactive) | 18.7 µM (inactive) | > 100 µM (inactive) | > 100 µM (inactive) | > 100 µM (inactive) | > 100 µM (inactive) | > 10 µM (inactive) | > 100 µM (inactive) | > 100 µM (inactive) | 76.4 µM (inactive) | 40.4 µM (inactive) | > 100 µM (inactive) | > 100 µM (inactive) | > 100 µM (inactive)
CC[C@H](C)C1=C(O)[N@+]2([O-])Oc3ccc(-c4c(O)c(O)c(-c5ccc(O)cc5)c(OC(C)=O)c4OC(C)=O)cc3O[C@]2([C@@H](C)CC)C(=O)N1O | 47.2 µM (inactive) | 16.7 µM (inactive) | 22.5 µM (inactive) | 28.8 µM (inactive) | > 50 µM (inactive) |  | 17.7 µM (inactive) | 15.7 µM (inactive) | 30.2 µM (inactive) | 28.1 µM (inactive) | 29.2 µM (inactive) | 16.3 µM (inactive) | 19 µM (inactive) | 10.6 µM (inactive) | 27.5 µM (inactive) | 24.8 µM (inactive) | 19.3 µM (inactive) | 26.7 µM (inactive) | > 50 µM (inactive)
CC1(C)N=c2c(ncn2-c2ccccc2)=C(C(N)=O)N1 | > 100 µM (inactive) | > 100 µM (inactive) | > 100 µM (inactive) | > 100 µM (inactive) | > 100 µM (inactive) | > 100 µM (inactive) | > 100 µM (inactive) | > 100 µM (inactive) | > 100 µM (inactive) | > 100 µM (inactive) | > 100 µM (inactive) |  | > 100 µM (inactive) | > 100 µM (inactive) | > 100 µM (inactive) | > 100 µM (inactive) | > 100 µM (inactive) | > 100 µM (inactive) | > 100 µM (inactive)
